Literature values in patent publication US20140295417A1, “IDENTIFICATION OF ANTIBIOTIC RESISTANCE” (priority 2011, published 2014).
Read-outs that look alike come from different tables or passages of the source.

Test system: 23S rRNA
Settings: cited from earlier work
[1] = 23S rRNA position 2611, "C to G", Chlamydomonas reinhardtii (Harris et al. 1989)
[2] = 23S rRNA position 2611, "C to U", Chlamydomonas reinhardtii (Harris et al. 1989)

Structure (SMILES): C[C@H]1O[C@H](O[C@H]2CC[C@H](n3ccc(NC(=O)c4ccc(NC(=O)[C@@](C)(N)CO)cc4)nc3=O)O[C@@H]2C)[C@H](O)[C@@H](O)[C@@H]1N(C)C [Amicetin]
- Phenotype (23S rRNA position 2438 "U to A", Halobacterium halobium): Amicetin resistance
- Phenotype (23S rRNA position 2438 "U to C", Halobacterium halobium): Amicetin resistance.

Structure (SMILES): COc1ccc(C[C@H]2NC[C@H](O)[C@H]2OC(C)=O)cc1 [Animosycin]
- Phenotype (23S rRNA position 2452 "C to U", Halobacterium (Hummel and Böck 1987)): Animosycin resistance.
- Phenotype (23S rRNA position 2452 "C to U", Tetrahymena thermophilia): Animosycin resistance

Structure (SMILES): COc1ccc(C[C@H]2NC[C@H](O)[C@H]2OC(C)=O)cc1 [Anisomycin]
- Phenotype (23S rRNA position 2447 "G to C", Halobacterium halobium): resistance.
- Phenotype (23S rRNA position 2453 "A to C", Halobacterium halobium): Anisomycin resistance

Structure (SMILES): O=C(N[C@H](CO)[C@H](O)c1ccc([N+](=O)[O-])cc1)C(Cl)Cl [Chloramphenicol]
- Phenotype (23S position 2061 G to A, Rat mitochondria, Vester and Garrett 1988): resistance
- Phenotype (23S position 2062 A to C, Halobacterium halobium, Mankin and Garrett 1991): resistance.
- Phenotype (23S rRNA position 2447 "G to A", Yeast mitochondria): resistance.
- Phenotype (23S rRNA position 2451 "A to U", Mouse mitochondria): resistance.
- Phenotype (23S rRNA position 2452 "C to A", Human mitochondria): resistance.
- Phenotype (23S rRNA position 2452 "C to U", Halobacterium halobium (Mankin and Garrett 1991)): resistance.
- Phenotype (23S rRNA position 2452 "C to U", Mouse mitochondria): resistance
- Phenotype (23S rRNA position 2503 "A to C", Yeast mitochondria): resistance
- Phenotype (23S rRNA position 2504 "U to C", Human mitochondria): resistance
- Phenotype (23S rRNA position 2504 "U to C", Mouse mitochondria): resistance

Structure (SMILES): CC[C@H]1OC(=O)[C@H](C)[C@@H](O[C@H]2C[C@@](C)(OC)[C@@H](O)[C@H](C)O2)[C@H](C)[C@@H](O[C@@H]2O[C@H](C)C[C@H](N(C)C)[C@H]2O)[C@](C)(OC)C[C@@H](C)C(=O)[C@H](C)[C@@H](O)[C@]1(C)O [Clarithomycin]
- Phenotype (23S position 2059 A to G, Helecobacter pylori, Versalovic 1996): resistance.

Structure (SMILES): CC[C@H]1OC(=O)[C@H](C)[C@@H](O[C@H]2C[C@@](C)(OC)[C@@H](O)[C@H](C)O2)[C@H](C)[C@@H](O[C@@H]2O[C@H](C)C[C@H](N(C)C)[C@H]2O)[C@](C)(OC)C[C@@H](C)C(=O)[C@H](C)[C@@H](O)[C@]1(C)O [Clarithromycin]
- Phenotype (23S position 2058 A to G, Helecobacter pylori, Versalovic 1996): resistance

Structure (SMILES): CC[C@H]1OC(=O)[C@H](C)[C@@H](O[C@H]2C[C@@](C)(OC)[C@@H](O)[C@H](C)O2)[C@H](C)[C@@H](O[C@@H]2O[C@H](C)C[C@H](N(C)C)[C@H]2O)[C@](C)(O)C[C@@H](C)C(=O)[C@H](C)[C@@H](O)[C@]1(C)O [Ery]
- Phenotype (23S position 2058 A to U, double mutation (A2058U/G2032A), E. coli, Douthwaite 1992): hs
- Phenotype (23S rRNA 2032 G to A, double mutation (G2032A/A2058U), E. coli): hs
- Phenotype (23S rRNA 2057 G to A, double mutation (G2057A/C2661U), E. coli): Slightly Eryr;
- Phenotype [1]: Eryr
- Phenotype (23S rRNA position 2611, "C to U", double mutation (C2611U/G2057A), E. coli (Vester et al. 1995)): Slightly Eryr; reduced
- Phenotype [2]: Eryr

Structure (SMILES): CC[C@H]1OC(=O)[C@H](C)[C@@H](O[C@H]2C[C@@](C)(OC)[C@@H](O)[C@H](C)O2)[C@H](C)[C@@H](O[C@@H]2O[C@H](C)C[C@H](N(C)C)[C@H]2O)[C@](C)(O)C[C@@H](C)C(=O)[C@H](C)[C@@H](O)[C@]1(C)O [Erythromycin]
- Phenotype (23S position 2058 A to G, Yeast mitochondria, Sor and Fukuhara 1982): resistance.
- Phenotype (23S rRNA 1207 C to U, double mutant (C1207U/C1243U), E. coli): Erythromycin resistant. a Double
- Phenotype (23S rRNA 1208 C to U, double mutant (C1208U/C1243U), E. coli): Erythromycin resistant. a Double
- Phenotype (23S rRNA 1211 C to U, double mutant (C1211U/C1208U), E. coli): Erythromycin sensitive. a Double
- Phenotype (23S rRNA 1220 G to A, double mutant (G1220A/G1239A), E. coli): Erythromycin resistant. a Double
- Phenotype (23S rRNA 1221 C to U, double mutant (C1221U/C1229U), E. coli): Erythromycin resistant. a Double
- Phenotype (23S rRNA 1221 C to U, double mutant (C1221U/C1233U), E. coli): Erythromycin resistant. a Double
- Phenotype (23S rRNA 1230, double deletion (1230/1231), E. coli): Erythromycin sensitive. a Double
- Phenotype (23S rRNA 1231, double deletion (1231/1230), E. coli): Erythromycin sensitive. a Double
- Phenotype (23S rRNA 1232 G to A, double mutant (G1232A/G1238A), E. coli): Erythromycin sensitive. a Double
- Phenotype (23S rRNA 1233 C to U, E. coli): Erythromycin sensitive. a
- Phenotype (23S rRNA 1234 U to C, E. coli): Erythromycin sensitive. a
- Phenotype (23S rRNA 1234 del1234/del1235, double mutant (U1234C/del1235), E. coli): Erythromycin sensitive. a Double
- Phenotype (23S rRNA 1243 C to U, double mutant (C1243U/C1207), E. coli): Erythromycin resistant. a Double
- Phenotype (23S rRNA 1243 C to U, double mutant (C1243U/C1208U), E. coli): Erythromycin resistant. a Double
- Phenotype (23S rRNA 1243 C to U, double mutant (C1243U/C1221U), E. coli): Erythromycin resistant. a Double

Structure (SMILES): CCC[C@@H]1C[C@@H](C(=O)N[C@@H]([C@H]2O[C@H](SC)[C@H](O)[C@@H](O)[C@H]2O)[C@@H](C)O)N(C)C1 [Lincomycin]
- Phenotype (23S position 2058 A to G, Chlamydomonas reinhardtii, Harris 1989): resistance.
- Phenotype (23S position 2058 A to G, Solanum nigrum, Kavanagh 1994): resistance.
- Phenotype (23S position 2058 A to G, Tobacco chloroplasts, Cseplö 1988): resistance.
- Phenotype (23S position 2059 A to G, Tobacco chloroplasts, Cseplö 1988): resistance.
- Phenotype (23S rRNA 2032 G to A, Tobbaco chloroplasts): resistance.

Structure (SMILES): CSC[S@+]([O-])C[C@H](CO)NC(=O)/C=C/c1c(C)[nH]c(=O)[nH]c1=O [Sparsomycin]
- Phenotype (23S rRNA position 2499 "C to U", Halobacterium halobium): resistance

Structure (SMILES): CC[C@H]1OC(=O)[C@H](C)[C@@H](O[C@H]2C[C@@](C)(OC)[C@@H](O)[C@H](C)O2)[C@H](C)[C@@H](O[C@@H]2O[C@H](C)C[C@H](N(C)C)[C@H]2O)[C@](C)(O)C[C@@H](C)C(=O)[C@H](C)[C@@H](O)[C@]1(C)O [erythromycin]
- Phenotype: growth rate (23S rRNA 1056 G to A, E. coli, with 2058G and erythromycin): erythromycin) Reduced
- Phenotype: growth rate (23S rRNA 1064 C to U, E. coli, with 2058G and erythromycin): erythromycin) Reduced
- Phenotype (23S rRNA 1068 G to A, E. coli, with 2058G, expressed from rrnB or pL promotor in presence of erythromycin): 2058G) Lethal when
- Phenotype (23S rRNA 1137 G to A, double mutant (G1137A/G1138C), E. coli, with 2058G and erythromycin, rrnB promoter): lethal when expressed from rrnB
- Phenotype (23S rRNA 1137 G to A, E. coli, with 2058G and erythromycin, expressed from rrnB promoter): lethal when expressed from rrnB
- Phenotype (23S rRNA 1138 G to C, double mutant (G1138C/G1137A), E. coli, with 2058G and erythromycin, rrnB promoter): lethal when expressed from rrnB
- Phenotype (23S rRNA 1138 G to C, E. coli, with 2058G and erythromycin, rrnB promoter): lethal when expressed from rrnB
- Phenotype: growth rate (23S rRNA 1262 A to C, double mutant (A1262C/U2017G), E. coli, with erythromycin): With erythromycin; reduced
- Phenotype (23S rRNA 1262 A to C, E. coli, with erythromycin): With erythromycin; lethal
- Phenotype (23S rRNA 1262 A to G, E. coli, with erythromycin): With erythromycin; lethal
- Phenotype: growth rate (23S rRNA 1262 A to U, double mutant (A1262U/U2017G), E. coli, with erythromycin): With erythromycin; reduced
- Phenotype: growth rate (23S rRNA 1262 A to U, E. coli, with erythromycin): With erythromycin; reduced
- Phenotype: growth rate (23S rRNA 2017 U to A, E. coli): Reduced growth
- Phenotype: growth rate (23S rRNA 2017 U to C, double mutation (U2017C/A1262G), E. coli): Reduced growth
- Phenotype: growth rate (23S rRNA 2017 U to C, E. coli): Reduced growth
- Phenotype: growth rate (23S rRNA 2017 U to G, double mutation (U2017G/A1262C), E. coli): Reduced growth
- Phenotype: growth rate (23S rRNA 2017 U to G, double mutation (U2017G/A1262U), E. coli): Reduced growth

Structure (SMILES): CC[C@H]1OC(=O)[C@H](C)[C@@H](O[C@H]2C[C@@](C)(OC)[C@@H](O)[C@H](C)O2)[C@H](C)[C@@H](O[C@@H]2O[C@H](C)C[C@H](N(C)C)[C@H]2O)[C@](C)(O)C[C@@H](C)C(=O)[C@H](C)[C@@H](O)[C@]1(C)O [eyrthomycin]
- Phenotype: growth rate (23S rRNA 2017 U to G, E. coli): Reduced growth

Structure (SMILES): CCC[C@@H]1C[C@@H](C(=O)N[C@@H]([C@H]2O[C@H](SC)[C@H](O)[C@@H](O)[C@H]2O)[C@@H](C)O)N(C)C1 [lincomycin]
- Phenotype [1]: low level
- Phenotype [2]: low level
